Measurements: ChEMBL document CHEMBL4028808, “Design and synthesis of selective CDK8/19 dual inhibitors: Discovery of 4,5-dihydrothieno[3',4':3,4]benzo[1,2-d]isothiazole derivatives” (Bioorg Med Chem, 2017)
Values belong to the compound of their own block, whether it stands above or below them. Active and inactive are the calls of the source. The rule behind the calls is not given here.

Columns and labels:
[1] = biological target: T1, Cyclin-dependent kinase 8 (Homo sapiens, UniProt P49336); assay: Inhibition of CDK8 (unknown origin) at 1 uM by ADP-Glo assay
T1 sequence (P49336 whole entry): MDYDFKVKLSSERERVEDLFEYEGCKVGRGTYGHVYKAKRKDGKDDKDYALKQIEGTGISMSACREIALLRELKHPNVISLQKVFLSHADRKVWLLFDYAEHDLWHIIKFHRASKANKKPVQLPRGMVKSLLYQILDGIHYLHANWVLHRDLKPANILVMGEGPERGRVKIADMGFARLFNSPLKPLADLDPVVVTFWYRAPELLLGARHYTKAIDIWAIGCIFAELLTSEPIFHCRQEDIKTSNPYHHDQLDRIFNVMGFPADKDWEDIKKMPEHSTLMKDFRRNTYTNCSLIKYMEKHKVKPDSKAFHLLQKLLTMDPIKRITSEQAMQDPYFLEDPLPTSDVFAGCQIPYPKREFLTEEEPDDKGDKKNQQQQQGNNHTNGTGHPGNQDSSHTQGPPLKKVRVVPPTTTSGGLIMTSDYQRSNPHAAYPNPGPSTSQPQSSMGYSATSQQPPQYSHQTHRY

[2] = biological target: High affinity nerve growth factor receptor (Homo sapiens) (UniProt P04629); assay: Inhibition of TrkA (unknown origin) at <1 uM
[3] = organism: Homo sapiens; assay: Inhibition of PKA (unknown origin) at 1 uM using PKA peptide as substrate preincubated for 5 mins followed by substrate addition measured after 10 mins in presence of [gamma33P]ATP by scintillation counter method relative to control
[4] = biological target: T2, CDK8/Cyclin C (Homo sapiens, UniProt P49336); assay: Inhibition of kinase tracer-236 binding to GST-tagged CDK8/CyclinC (unknown origin) after 60 mins by TR-FRET assay; format: protein-complex assay
T2 sequence (P49336 whole entry): as above
T2 sequence (P24863 whole entry, further chain): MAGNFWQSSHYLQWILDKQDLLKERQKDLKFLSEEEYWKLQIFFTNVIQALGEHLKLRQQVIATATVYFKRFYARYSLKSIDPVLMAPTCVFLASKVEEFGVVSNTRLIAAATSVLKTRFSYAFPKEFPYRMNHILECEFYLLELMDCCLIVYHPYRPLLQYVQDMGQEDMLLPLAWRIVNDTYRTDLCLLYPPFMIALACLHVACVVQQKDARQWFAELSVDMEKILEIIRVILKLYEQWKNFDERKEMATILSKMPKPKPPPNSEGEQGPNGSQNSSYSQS

[5] = biological target: Mitogen-activated protein kinase 3 (Homo sapiens) (UniProt P27361); assay: Inhibition of ERK1 (unknown origin) at <1 uM using MBP as substrate preincubated for 5 mins followed by substrate addition measured after 60 mins in presence of [gamma33P]ATP by scintillation counter method
[6] = biological target: Hepatocyte growth factor receptor (Homo sapiens) (UniProt P08581); assay: Inhibition of cMET (unknown origin) at <1 uM
Chain of Hepatocyte growth factor receptor (Homo sapiens) (P08581 whole entry): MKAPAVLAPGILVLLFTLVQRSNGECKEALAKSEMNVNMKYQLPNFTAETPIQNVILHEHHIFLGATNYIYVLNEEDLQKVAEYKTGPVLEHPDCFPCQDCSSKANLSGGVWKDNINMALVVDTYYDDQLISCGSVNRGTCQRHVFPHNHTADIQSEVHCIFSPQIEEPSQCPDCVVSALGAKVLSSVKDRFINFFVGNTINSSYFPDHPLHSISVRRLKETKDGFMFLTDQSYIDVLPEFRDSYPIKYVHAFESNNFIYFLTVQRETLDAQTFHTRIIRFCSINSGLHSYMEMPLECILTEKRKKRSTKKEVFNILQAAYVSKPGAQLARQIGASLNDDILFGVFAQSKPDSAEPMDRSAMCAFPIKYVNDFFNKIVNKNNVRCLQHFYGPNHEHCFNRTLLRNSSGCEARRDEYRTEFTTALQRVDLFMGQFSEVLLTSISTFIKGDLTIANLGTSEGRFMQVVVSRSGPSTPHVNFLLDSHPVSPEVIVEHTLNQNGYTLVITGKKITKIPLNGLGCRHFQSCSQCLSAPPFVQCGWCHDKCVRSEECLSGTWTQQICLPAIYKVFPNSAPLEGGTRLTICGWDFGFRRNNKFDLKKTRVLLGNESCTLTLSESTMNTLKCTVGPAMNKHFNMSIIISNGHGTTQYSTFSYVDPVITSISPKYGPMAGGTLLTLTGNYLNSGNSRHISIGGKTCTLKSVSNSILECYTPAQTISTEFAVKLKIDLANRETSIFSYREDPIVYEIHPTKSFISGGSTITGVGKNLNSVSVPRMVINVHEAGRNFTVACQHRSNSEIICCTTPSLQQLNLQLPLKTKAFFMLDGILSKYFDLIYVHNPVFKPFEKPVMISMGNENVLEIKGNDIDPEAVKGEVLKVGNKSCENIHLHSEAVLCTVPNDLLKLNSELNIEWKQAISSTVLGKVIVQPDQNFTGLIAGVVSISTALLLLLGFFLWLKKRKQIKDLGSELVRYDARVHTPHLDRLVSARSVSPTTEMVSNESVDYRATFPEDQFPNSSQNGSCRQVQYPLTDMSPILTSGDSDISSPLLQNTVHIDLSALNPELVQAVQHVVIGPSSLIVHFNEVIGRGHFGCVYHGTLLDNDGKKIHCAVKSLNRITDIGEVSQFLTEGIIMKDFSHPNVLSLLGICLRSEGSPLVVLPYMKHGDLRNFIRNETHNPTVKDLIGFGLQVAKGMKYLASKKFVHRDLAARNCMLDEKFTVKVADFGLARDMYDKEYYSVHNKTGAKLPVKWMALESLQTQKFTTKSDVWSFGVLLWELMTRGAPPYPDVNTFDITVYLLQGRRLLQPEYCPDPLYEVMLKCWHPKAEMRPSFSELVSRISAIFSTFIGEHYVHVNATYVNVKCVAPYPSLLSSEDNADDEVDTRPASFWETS

[7] = biological target: RAC-alpha serine/threonine-protein kinase (Homo sapiens) (UniProt P31749); assay: Inhibition of Akt1 (unknown origin) at <1 uM using AKT1 substrate pretreated for 5 mins followed by substrate addition after 20 mins in presence of [gamma33P]ATP by scintillation counter method
[8] = Intrinsic clearance in human liver microsomes at 1 umol/l after 15 to 30 mins in presence of NADPH by LC-MS/MS analysis; format: ADME, microsome; details: read-out: CLH
[9] = biological target: Mitogen-activated protein kinase 14 (Homo sapiens) (UniProt Q16539); assay: Inhibition of p38alpha (unknown origin) at <1 uM using MBP as substrate preincubated for 5 mins followed by substrate addition measured after 60 mins in presence of [gamma32P]ATP by scintillation counter method
[10] = biological target: Proto-oncogene tyrosine-protein kinase Src (Homo sapiens) (UniProt P12931); assay: Inhibition of SRC (unknown origin) at <1 uM using biotinylated poly[Glu:Tyr] (4:1) as substrate pretreated for 5 mins followed by substrate addition measured after 10 mins by Alphascreen assay
Chain of Proto-oncogene tyrosine-protein kinase Src (Homo sapiens) (P12931 2-536 limits assumed): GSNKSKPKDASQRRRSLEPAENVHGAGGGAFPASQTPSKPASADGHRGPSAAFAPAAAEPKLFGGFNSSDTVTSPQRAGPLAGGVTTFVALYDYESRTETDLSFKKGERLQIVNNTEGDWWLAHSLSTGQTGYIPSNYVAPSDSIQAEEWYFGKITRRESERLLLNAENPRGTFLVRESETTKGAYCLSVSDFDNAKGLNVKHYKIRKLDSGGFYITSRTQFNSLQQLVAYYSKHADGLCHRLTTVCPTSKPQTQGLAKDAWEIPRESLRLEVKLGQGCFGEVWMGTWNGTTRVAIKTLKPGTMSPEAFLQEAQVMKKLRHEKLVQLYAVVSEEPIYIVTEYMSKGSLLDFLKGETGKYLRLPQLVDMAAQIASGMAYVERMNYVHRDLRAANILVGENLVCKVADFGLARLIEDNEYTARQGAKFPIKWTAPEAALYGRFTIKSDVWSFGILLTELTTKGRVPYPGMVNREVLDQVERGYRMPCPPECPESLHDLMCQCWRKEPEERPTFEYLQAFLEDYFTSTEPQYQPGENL

[11] = biological target: Insulin receptor (Homo sapiens) (UniProt P06213); assay: Inhibition of IRK (unknown origin) at <1 uM using biotinylated poly[Glu:Tyr] (4:1) as substrate pretreated for 5 mins followed by substrate addition measured after 60 mins by Alphascreen assay
[12] = biological target: Ephrin type-A receptor 5 (Homo sapiens) (UniProt P54756); assay: Inhibition of EphA5 (unknown origin) at <1 uM using biotinylated poly[Glu:Tyr] (4:1) as substrate pretreated for 5 mins followed by substrate addition measured after 10 mins by Alphascreen assay
[13] = biological target: CDC7/DBF4 (Cell division cycle 7-related protein kinase/Activator of S phase kinase) (Homo sapiens) (UniProt Q9UBU7+O00311); assay: Inhibition of CDC7/Dbf4 (unknown origin) at 1 uM using His-tagged MCM2 as substrate preincubated for 5 mins followed by substrate addition measured after 60 mins in presence of [gamma33P]ATP by scintillation counter method relative to control; format: protein-complex assay
[14] = biological target: CDK2/Cyclin A2 (Homo sapiens) (UniProt P24941+P20248); assay: Inhibition of CDK2/cyclin A (unknown origin) at 1 uM using histone H1 as substrate preincubated for 5 mins followed by substrate addition measured after 20 mins in presence of [gamma33P]ATP by scintillation counter method relative to control; format: protein-complex assay
[15] = biological target: Focal adhesion kinase 1 (Homo sapiens) (UniProt Q05397); assay: Inhibition of FAK (unknown origin) at <1 uM using biotinylated poly[Glu:Tyr] (4:1) as substrate pretreated for 5 mins followed by substrate addition measured after 20 mins by Alphascreen assay
Chain of Focal adhesion kinase 1 (Homo sapiens) (Q05397 2-1052 limits assumed): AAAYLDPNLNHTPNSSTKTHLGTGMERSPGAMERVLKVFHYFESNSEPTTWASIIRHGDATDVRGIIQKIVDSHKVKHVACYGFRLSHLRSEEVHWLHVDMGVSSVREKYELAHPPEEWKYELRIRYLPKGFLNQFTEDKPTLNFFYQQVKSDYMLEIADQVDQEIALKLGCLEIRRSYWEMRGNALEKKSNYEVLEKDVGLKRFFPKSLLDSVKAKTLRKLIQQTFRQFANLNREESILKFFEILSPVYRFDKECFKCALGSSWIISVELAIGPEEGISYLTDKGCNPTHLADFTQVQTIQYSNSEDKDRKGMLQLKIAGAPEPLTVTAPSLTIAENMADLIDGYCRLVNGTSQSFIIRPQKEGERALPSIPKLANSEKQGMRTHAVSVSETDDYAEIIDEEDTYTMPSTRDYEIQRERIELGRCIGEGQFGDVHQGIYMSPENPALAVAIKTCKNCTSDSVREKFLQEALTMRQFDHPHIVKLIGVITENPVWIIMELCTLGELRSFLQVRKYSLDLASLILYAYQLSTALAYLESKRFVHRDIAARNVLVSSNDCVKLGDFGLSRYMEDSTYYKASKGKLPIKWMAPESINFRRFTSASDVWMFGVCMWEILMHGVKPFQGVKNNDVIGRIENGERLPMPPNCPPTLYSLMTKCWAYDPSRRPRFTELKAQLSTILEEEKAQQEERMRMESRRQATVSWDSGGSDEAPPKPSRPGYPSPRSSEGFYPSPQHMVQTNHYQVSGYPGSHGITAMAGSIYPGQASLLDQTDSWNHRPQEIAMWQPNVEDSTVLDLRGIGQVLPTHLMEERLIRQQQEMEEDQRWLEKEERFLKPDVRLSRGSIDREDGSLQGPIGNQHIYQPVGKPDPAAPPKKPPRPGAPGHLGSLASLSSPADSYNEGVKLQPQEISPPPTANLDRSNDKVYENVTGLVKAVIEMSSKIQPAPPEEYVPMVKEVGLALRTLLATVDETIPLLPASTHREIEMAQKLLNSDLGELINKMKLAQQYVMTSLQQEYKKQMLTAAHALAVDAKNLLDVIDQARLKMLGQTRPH

[16] = biological target: Dual specificity mitogen-activated protein kinase kinase 1 (Homo sapiens) (UniProt Q02750); assay: Inhibition of MEK1 (unknown origin) at <1 uM using GST-ERK1 as substrate preincubated for 5 mins followed by substrate addition measured after 20 mins in presence of [gamma33P]ATP by scintillation counter method
Chain of Dual specificity mitogen-activated protein kinase kinase 1 (Homo sapiens) (Q02750 whole entry, canonical isoform): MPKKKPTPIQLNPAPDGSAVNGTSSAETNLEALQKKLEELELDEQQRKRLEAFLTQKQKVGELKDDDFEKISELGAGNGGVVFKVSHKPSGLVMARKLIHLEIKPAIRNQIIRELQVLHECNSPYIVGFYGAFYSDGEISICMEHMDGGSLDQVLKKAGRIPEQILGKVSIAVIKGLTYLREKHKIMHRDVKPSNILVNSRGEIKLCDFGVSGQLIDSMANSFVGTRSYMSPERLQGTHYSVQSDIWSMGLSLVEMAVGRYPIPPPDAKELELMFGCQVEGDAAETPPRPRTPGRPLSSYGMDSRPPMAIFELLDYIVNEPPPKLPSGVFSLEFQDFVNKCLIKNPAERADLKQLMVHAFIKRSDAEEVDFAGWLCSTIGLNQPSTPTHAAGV

[17] = biological target: Phosphatidylinositol 4,5-bisphosphate 3-kinase catalytic subunit alpha isoform (Homo sapiens) (UniProt P42336); assay: Inhibition of PI3Kalpha (unknown origin) at <1 uM
[18] = biological target: Protein kinase C theta type (Homo sapiens) (UniProt Q04759); assay: Inhibition of PKCtheta (unknown origin) at 1 uM using MBP as substrate preincubated for 5 mins followed by substrate addition measured after 60 mins in presence of [gamma33P]ATP by scintillation counter method relative to control
[19] = biological target: Cyclin-C/Cyclin-dependent kinase 19 (Homo sapiens, UniProt Q9BWU1); assay: Inhibition of kinase tracer-236 binding to GST-tagged CDK19/CyclinC (unknown origin) after 60 mins by TR-FRET assay; format: protein-complex assay
[20] = biological target: Mitogen-activated protein kinase kinase kinase 5 (Homo sapiens) (UniProt Q99683); assay: Inhibition of ASK1 (unknown origin) at 1 uM using MBP as substrate preincubated for 5 mins followed by substrate addition measured after 60 mins in presence of [gamma33P]ATP by scintillation counter method relative to control
[21] = biological target: Serine/threonine-protein kinase PLK1 (Homo sapiens) (UniProt P53350); assay: Inhibition of PLK1 (unknown origin) at 1 uM using alpha-casein as substrate preincubated for 5 mins followed by substrate addition measured after 60 mins in presence of [gamma33P]ATP by scintillation counter method relative to control
[22] = biological target: Aurora kinase B (Homo sapiens) (UniProt Q96GD4); assay: Inhibition of Aurora B (unknown origin) at <1 uM using aurora peptide as substrate preincubated for 5 mins followed by substrate addition measured after 60 mins in presence of [gamma33P]ATP by scintillation counter method
[23] = biological target: CDK8/Cyclin C (Homo sapiens) (UniProt P49336+P24863); details: 1 uM
Description: Inhibition of kinase tracer-236 binding to GST-tagged CDK8/CyclinC (unknown origin) at 1 uM after 60 mins by TR-FRET assay relative to control

[24] = biological target: Tyrosine-protein kinase JAK1 (Homo sapiens) (UniProt P23458); assay: Inhibition of JAK1 (unknown origin) at <1 uM using biotinylated poly[Glu:Tyr] (4:1) as substrate pretreated for 5 mins followed by substrate addition measured after 10 mins by Alphascreen assay
[25] = biological target: T1, Cyclin-dependent kinase 8; assay: Inhibition of CDK8 in human SW480 cells assessed as decrease in STAT1 phosphorylation at Ser727 after 2 hrs by Western blot method
[26] = biological target: Cyclin-C/Cyclin-dependent kinase 19 (Homo sapiens) (UniProt Q9BWU1+P24863); details: 1 uM
Description: Inhibition of kinase tracer-236 binding to GST-tagged CDK19/CyclinC (unknown origin) at 1 uM after 60 mins by TR-FRET assay relative to control

[27] = biological target: Vascular endothelial growth factor receptor 2 (Homo sapiens) (UniProt P35968); assay: Inhibition of VEGFR2 (unknown origin) at <1 uM using biotinylated poly[Glu:Tyr] (4:1) as substrate pretreated for 5 mins followed by substrate addition measured after 10 mins by Alphascreen assay
[28] = biological target: Rho-associated protein kinase 1 (Homo sapiens) (UniProt Q13464); assay: Inhibition of ROCK1 (unknown origin) at 1 uM using long S6 peptide as substrate pretreated for 5 mins followed by substrate addition measured after 10 mins in presence of [gamma33P]ATP by scintillation counting method relative to control
[29] = biological target: Glycogen synthase kinase-3 beta (Homo sapiens) (UniProt P49841); assay: Inhibition of GSK3beta (unknown origin) at 1 uM using GSK3 substrate peptide preincubated for 5 mins followed by substrate addition measured after 30 mins in presence of [gamma33P]ATP by scintillation counter method relative to control
[30] = biological target: MAP kinase-activated protein kinase 2 (Homo sapiens) (UniProt P49137); assay: Inhibition of MAPKAPK2 (unknown origin) at <1 uM using KKLNRTLSVA-NH2 as substrate preincubated for 5 mins followed by substrate addition measured after 10 mins in presence of [gamma33P]ATP by scintillation counter method
[31] = biological target: T3, Cyclin-dependent kinase 9 (Homo sapiens, UniProt P50750); assay: Inhibition of CDK9 (unknown origin)
T3 sequence (P50750 whole entry, canonical isoform): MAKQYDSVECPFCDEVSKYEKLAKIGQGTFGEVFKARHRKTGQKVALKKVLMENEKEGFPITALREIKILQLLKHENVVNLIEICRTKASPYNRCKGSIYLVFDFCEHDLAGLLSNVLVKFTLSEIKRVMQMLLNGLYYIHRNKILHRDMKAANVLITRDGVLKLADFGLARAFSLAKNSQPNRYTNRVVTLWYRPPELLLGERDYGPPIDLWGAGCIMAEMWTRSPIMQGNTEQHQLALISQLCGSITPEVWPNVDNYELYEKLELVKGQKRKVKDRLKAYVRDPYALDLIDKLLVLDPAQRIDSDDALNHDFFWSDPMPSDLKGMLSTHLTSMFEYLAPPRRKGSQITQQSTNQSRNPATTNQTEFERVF

[32] = biological target: Casein kinase I isoform delta (Homo sapiens) (UniProt P48730); assay: Inhibition of CK1delta (unknown origin) at 1 uM using CK1tide as substrate preincubated for 5 mins followed by substrate addition measured after 20 mins in presence of [gamma33P]ATP by scintillation counter method relative to control
Chain of Casein kinase I isoform delta (Homo sapiens) (P48730 whole entry, looked up, canonical isoform): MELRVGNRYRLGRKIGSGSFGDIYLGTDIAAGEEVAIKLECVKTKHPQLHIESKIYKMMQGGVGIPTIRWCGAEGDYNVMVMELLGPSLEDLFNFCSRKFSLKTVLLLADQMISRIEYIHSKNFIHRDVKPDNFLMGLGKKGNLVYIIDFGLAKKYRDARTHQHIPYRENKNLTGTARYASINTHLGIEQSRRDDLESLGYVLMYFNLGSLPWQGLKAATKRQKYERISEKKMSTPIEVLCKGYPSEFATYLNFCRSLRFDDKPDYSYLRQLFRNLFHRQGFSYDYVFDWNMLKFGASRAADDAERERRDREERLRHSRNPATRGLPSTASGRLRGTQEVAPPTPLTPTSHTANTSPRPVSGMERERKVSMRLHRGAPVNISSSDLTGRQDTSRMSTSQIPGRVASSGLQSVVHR

[33] = biological target: T3, Cyclin-dependent kinase 9; assay: Inhibition of CDK9 (unknown origin) at 1 uM relative to control
[34] = biological target: Serine/threonine-protein kinase Chk1 (Homo sapiens) (UniProt O14757); assay: Inhibition of CHK1 (unknown origin) at <1 uM using CHKtide as substrate preincubated for 5 mins followed by substrate addition measured after 10 mins in presence of [gamma33P]ATP by scintillation counter method
[35] = tested on: SET-2; assay: Antitumor activity against human SET2 cells implanted in […] assessed as reduction in tumor volume administered intraperitoneally relative to control; format: functional; parameters: scale not given: the % may be the effect or the level left
[36] = biological target: T2, CDK8/Cyclin C; assay: Inhibition of full length recombinant human His-tagged CDK8/Cyclin C expressed in baculovirus expression system by LanthaScreen assay
[37] = biological target: T1, Cyclin-dependent kinase 8; assay: Inhibition of CDK8 induced beta-catenin transcriptional activity in human HCT116 cells by luciferase reporter gene assay; format: cell-based
[38] = biological target: T1, Cyclin-dependent kinase 8; assay: Inhibition of CDK8 in human A549 cells by mass spectrometric method; format: cell-based

SMILES: CSc1sc(C(N)=O)c2c1-c1sncc1CC2
- inhibition [2]: inactive
- inhibition [3]: 62%
- IC50 [4]: 0.65 nM
- inhibition [5]: inactive
- inhibition [6]: inactive
- inhibition [7]: inactive
- microsomal CLint at 1 µM [8]: 137 µL/min/mg
- inhibition [9]: inactive
- inhibition [10]: inactive
- inhibition [11]: inactive
- inhibition [12]: inactive
- inhibition [13]: 91%
- inhibition [14]: 95%
- inhibition [15]: inactive
- inhibition [16]: inactive
- inhibition [17]: inactive
- inhibition [18]: 77%
- IC50 [19]: 1.3 to 1.7 nM
- inhibition [20]: 60%
- inhibition [21]: 62%
- inhibition [22]: inactive
- inhibition [23]: 99%
- inhibition [24]: inactive
- EC50 [25]: 8.9 nM
- inhibition [26]: 97%
- inhibition [27]: inactive
- inhibition [28]: 81%
- inhibition [29]: 64%
- inhibition [30]: inactive
- IC50 [31]: 4 nM
- inhibition [32]: 94%
- inhibition [33]: 105%
- inhibition [34]: inactive

SMILES: CN(C)[C@H]1C[C@@]23CC[C@@]4(O2)C(=CC[C@]2(C)[C@@H](c5ccc6ccncc6c5)CC[C@H]24)C=C3[C@@H](O)[C@@H]1O
- Activity [35]: 71%

Results, then the compound that gave them:

- inhibition [1]: 96%
SMILES: Brc1c(Br)c2c3c(nc(N4CCNCC4)n3CCC2)c1Br

- IC50 [36]: 31 nM
- EC50 [37]: 337 nM
SMILES: c1cc2cc(c1)-c1cnc3ccc(nn13)NCCCCCO2

- IC50 [38]: 22 nM
SMILES: NC(=O)C[C@H]1CCc2sc3ncnc(O[C@H]4CC[C@H](N5CCOCC5)CC4)c3c21
